Assay results: patent publication US20260297092A1, “PYRAZOLOPYRIMIDINE DERIVATIVES AS INHIBITORS OF NLRP3” (Takeda Pharmaceutical Company Limited, priority 2023, published 2026)

What was measured:
[1] = tested on: TNF-α (NF-κB pathway, THP-1 cells); assay: TNF-α Assay (IC50); assay type: cell-based, human; details: Homo sapiens, 600 ng/mL LPS, 3 hours
Method in brief: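 Supernatant TNF-α quantified by ELISA after 3 h stimulation with 600 ng/mL LPS at 37 °C, following 30 min compound preincubation. Cells: IFN-differentiated (25 ng/mL, 24 h) THP-1 macrophages, 40,000/well, serum-free. IC50 by sigmoidal fit of % inhibition, with TPCA-1 as 100% control.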

[2] = tested on: NLRP3 inflammasome (IL-1β production in THP-1 cells); assay: IL-1β TR-FRET Assay (percentage of inhibition at 300 nM, 6 μM or 10 μM); assay type: cell-based, human; details: Homo sapiens, LPS priming, ATP activation; for inhibition at 0.3 µM: THP-1, 300 nM, read-out: IL-1β inhibitory rate at 300 nM (%); for inhibition at 10 µM: THP-1, 10 μM, read-out: IL-1β inhibitory rate at 10 μM (%)
Method in brief: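 Percent inhibition of IL-1β used DMSO wells as 0% and 3 μM MCC-950 wells as full inhibition, with supernatant read by HTRF. Beforehand, IFN-γ-differentiated (25 ng/mL, 24 h), LPS-primed (50 ng/mL, 24 h) THP-1 cells received compound 30 min before inflammasome activation by 20 mM ATP for 2 h.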

| IC50 [1] [µM] | Compound | inhibition at 0.3 µM [2] [%] | inhibition at 10 µM [2] [%] |
| --- | --- | --- | --- |
| > 30 | CCOc1nc2nn(-c3ccc(C4CC4)cn3)cc2c(=O)[nH]1 [Example 130, 2-(5-cyclopropylpyridin-2-yl)-6-ethoxy-2,5-dihydro-4H-pyrazolo[3,4-d]pyrimidin-4-one] |  | 37 |
| > 30 | CCOc1nc2nn(-c3c(C)cc(Br)cc3C)cc2c(=O)[nH]1 [Example 131, 2-(4-bromo-2,6-dimethylphenyl)-6-ethoxy-2,5-dihydro-4H-pyrazolo[3,4-d]pyrimidin-4-one] | 100 |  |
| > 30 | CCOc1nc2nn(-c3c(C)cc(C4CC4)cc3C)cc2c(=O)[nH]1 [Example 132, 2-(4-cyclopropyl-2,6-dimethylphenyl)-6-ethoxy-2,5-dihydro-4H-pyrazolo[3,4-d]pyrimidin-4-one] | 99 |  |
| > 30 | CCOc1nc2nn(-c3c(F)cc(Br)cc3Cl)cc2c(=O)[nH]1 [Example 133, 2-(4-bromo-2-chloro-6-fluorophenyl)-6-ethoxy-2,5-dihydro-4H-pyrazolo[3,4-d]pyrimidin-4-one] | 96 |  |
| > 30 | CCOc1nc2nn(-c3c(F)cc(C)cc3CC(F)(F)F)cc2c(=O)[nH]1 [Example 134, 6-ethoxy-2-[2-fluoro-4-methyl-6-(2,2,2-trifluoroethyl)phenyl]-2,5-dihydro-4H-pyrazolo[3,4-d]pyrimidin-4-one] | 96 |  |
| > 30 | CCOc1nc2nn(-c3c(F)cc(C)cc3Cl)cc2c(=O)[nH]1 [Example 135, 2-(2-chloro-6-fluoro-4-methylphenyl)-6-ethoxy-2,5-dihydro-4H-pyrazolo[3,4-d]pyrimidin-4-one] | 98 |  |
| > 30 | CCOc1nc2nn(-c3c(C)cc(C(F)F)cc3F)cc2c(=O)[nH]1 [Example 136, 2-[4-(difluoromethyl)-2-fluoro-6-methylphenyl]-6-ethoxy-2,5-dihydro-4H-pyrazolo[3,4-d]pyrimidin-4-one] | 92 |  |
| > 30 | CCOc1nc2nn(-c3c(F)cc(C4CC4)cc3Cl)cc2c(=O)[nH]1 [Example 137, 2-(2-chloro-4-cyclopropyl-6-fluorophenyl)-6-ethoxy-2,5-dihydro-4H-pyrazolo[3,4-d]pyrimidin-4-one] | 98 |  |
| > 30 | COc1nc2nn(-c3c(C)cc(Br)cc3C)cc2c(=O)[nH]1 [Example 138, 2-(4-bromo-2,6-dimethylphenyl)-6-methoxy-2,5-dihydro-4H-pyrazolo[3,4-d]pyrimidin-4-one] | 93 |  |
| > 30 | CCOc1nc2nn(-c3c(C)cc(-n4cccn4)cc3C)cc2c(=O)[nH]1 [Example 139, 2-[2,6-dimethyl-4-(1H-pyrazol-1-yl)phenyl]-6-ethoxy-2,5-dihydro-4H-pyrazolo[3,4-d]pyrimidin-4-one] |  | 95 |
| > 30 | CCOc1nc2nn(-c3ccc(C)cc3O)c(CC)c2c(=O)[nH]1 [Example 140, 6-ethoxy-3-ethyl-2-(2-hydroxy-4-methylphenyl)-2,5-dihydro-4H-pyrazolo[3,4-d]pyrimidin-4-one] | 93 |  |
| > 30 | CCOc1nc2nn(-c3c(C)cc(C4CC4)cc3C)cc2c(=O)n1C [Example 141, 2-(4-cyclopropyl-2,6-dimethylphenyl)-6-ethoxy-5-methyl-2,5-dihydro-4H-pyrazolo[3,4-d]pyrimidin-4-one] |  | 95 |
| > 30 | CCOc1nc2nn(-c3c(C)cc(OC(F)F)cc3Br)cc2c(=O)[nH]1 [Example 142, 2-[2-bromo-4-(difluoromethoxy)-6-methylphenyl]-6-ethoxy-2,5-dihydro-4H-pyrazolo[3,4-d]pyrimidin-4-one] | 93 |  |
| > 30 | CCOc1nc2nn(-c3c(C)cc(OC)cc3Br)cc2c(=O)[nH]1 [Example 143, 2-(2-bromo-4-methoxy-6-methylphenyl)-6-ethoxy-2,5-dihydro-4H-pyrazolo[3,4-d]pyrimidin-4-one] | 93 |  |
| > 30 | CCOc1nc2nn(-c3c(C)cc(Br)cc3-n3cccn3)cc2c(=O)[nH]1 [Example 144, 2-[4-bromo-2-methyl-6-(1H-pyrazol-1-yl)phenyl]-6-ethoxy-2,5-dihydro-4H-pyrazolo[3,4-d]pyrimidin-4-one] | 96 |  |
| > 30 | CCOc1nc2nn(-c3c(C)cc(OC)cc3C)cc2c(=O)[nH]1 [Example 145, 6-ethoxy-2-(4-methoxy-2,6-dimethylphenyl)-2,5-dihydro-4H-pyrazolo[3,4-d]pyrimidin-4-one] | 106 |  |
| > 30 | COc1nc2nn(-c3c(C)cc(C4CC4)cc3C)cc2c(=O)[nH]1 [Example 146, 2-(4-cyclopropyl-2,6-dimethylphenyl)-6-methoxy-2,5-dihydro-4H-pyrazolo[3,4-d]pyrimidin-4-one] | 94 |  |

Continued, compound first:

| Compound | IC50 [1] [µM] | inhibition at 0.3 µM [2] [%] | inhibition at 10 µM [2] [%] |
| --- | --- | --- | --- |
| Cc1cc(C)c(-n2cc3c(=O)[nH]c(OCCCN(C)C)nc3n2)c(O)c1 [Example 115, 6-[3-(dimethylamino)propoxy]-2-(2-hydroxy-4,6-dimethylphenyl)-2,5-dihydro-4H-pyrazolo[3,4-d]pyrimidin-4-one] | > 30 | 99 |  |
| CCOc1nc2nn(-c3c(O)cc(C)cc3OC(F)F)cc2c(=O)[nH]1 [Example 116, 2-[2-(difluoromethoxy)-6-hydroxy-4-methylphenyl]-6-ethoxy-2,5-dihydro-4H-pyrazolo[3,4-d]pyrimidin-4-one] | > 30 | 96 |  |
| CCOc1nc2nn(-c3c(F)cc(C4CC4)cc3C(F)(F)F)cc2c(=O)[nH]1 [Example 117, 2-[4-cyclopropyl-2-fluoro-6-(trifluoromethyl)phenyl]-6-ethoxy-2,5-dihydro-4H-pyrazolo[3,4-d]pyrimidin-4-one] | > 30 | 100 |  |
| CCOc1nc2nn(-c3c(C)cc(C)cc3Br)cc2c(=O)[nH]1 [Example 118, 2-(2-bromo-4,6-dimethylphenyl)-6-ethoxy-2,5-dihydro-4H-pyrazolo[3,4-d]pyrimidin-4-one] | > 30 | 101 |  |
| CCOc1nc2nn(-c3c(F)cc(OC(F)F)cc3Br)cc2c(=O)[nH]1 [Example 119, 2-[2-bromo-4-(difluoromethoxy)-6-fluorophenyl]-6-ethoxy-2,5-dihydro-4H-pyrazolo[3,4-d]pyrimidin-4-one] | > 30 | 101 |  |
| C=Cc1cc(C)c(-n2cc3c(=O)[nH]c(OCC)nc3n2)c(F)c1 [Example 120, 2-(4-ethenyl-2-fluoro-6-methylphenyl)-6-ethoxy-2,5-dihydro-4H-pyrazolo[3,4-d]pyrimidin-4-one] | > 30 | 101 |  |
| CCOc1nc2nn(-c3c(C)cc(OC)cc3F)cc2c(=O)[nH]1 [Example 121, 6-ethoxy-2-(2-fluoro-4-methoxy-6-methylphenyl)-2,5-dihydro-4H-pyrazolo[3,4-d]pyrimidin-4-one] | > 30 | 97 |  |
| CCOc1nc2nn(-c3c(C)cc(CC)cc3F)cc2c(=O)[nH]1 [Example 122, 6-ethoxy-2-(4-ethyl-2-fluoro-6-methylphenyl)-2,5-dihydro-4H-pyrazolo[3,4-d]pyrimidin-4-one] | > 30 | 99 |  |
| CCOc1nc2nn(-c3c(F)cc(C4CC4)cc3F)c(C)c2c(=O)[nH]1 [Example 123, 2-(4-cyclopropyl-2,6-difluorophenyl)-6-ethoxy-3-methyl-2,5-dihydro-4H-pyrazolo[3,4-d]pyrimidin-4-one] | > 30 | 95 |  |
| Cc1ccc(-n2nc3nc(-c4ccccn4)[nH]c(=O)c3c2C)c(O)c1 [Example 124, 2-(2-hydroxy-4-methylphenyl)-3-methyl-6-(pyridin-2-yl)-2,5-dihydro-4H-pyrazolo[3,4-d]pyrimidin-4-one] | > 30 | 97 |  |
| CCOc1nc2nn(-c3c(C)cc(OC(F)(F)F)cc3F)cc2c(=O)[nH]1 [Example 125, 6-ethoxy-2-[2-fluoro-6-methyl-4-(trifluoromethoxy)phenyl]-2,5-dihydro-4H-pyrazolo[3,4-d]pyrimidin-4-one] | > 30 | 100 |  |
| CCOc1nc2nn(-c3c(C)cc(F)cc3F)cc2c(=O)[nH]1 [Example 126, 2-(2,4-difluoro-6-methylphenyl)-6-ethoxy-2,5-dihydro-4H-pyrazolo[3,4-d]pyrimidin-4-one] | > 30 | 51 |  |
| CCOc1nc2nn(-c3ccc(C)cc3O)c(C)c2c(=O)[nH]1 [Example 127, 6-ethoxy-2-(2-hydroxy-4-methylphenyl)-3-methyl-2,5-dihydro-4H-pyrazolo[3,4-d]pyrimidin-4-one] | > 30 | 98 |  |
| CCOc1nc2nn(-c3c(F)cc(Br)cc3Br)cc2c(=O)[nH]1 [Example 128, 2-(2,4-dibromo-6-fluorophenyl)-6-ethoxy-2,5-dihydro-4H-pyrazolo[3,4-d]pyrimidin-4-one] | > 30 | 97 |  |
| Cc1cc(C)c(-n2cc3c(=O)[nH]c(OCCCCN(C)C)nc3n2)c(O)c1 [Example 129, 6-[4-(dimethylamino)butoxy]-2-(2-hydroxy-4,6-dimethylphenyl)-2,5-dihydro-4H-pyrazolo[3,4-d]pyrimidin-4-one] | > 30 | 98 |  |
